Where “and” joins values, the source holds several entries; their conditions need not be identical. Identical values can stand only once.
Species on record: Rattus norvegicus
Assay: DrugMatrix - Regimen: Daily Repeat
Type: toxicity, organism-based, Sprague-Dawley
Parameters: regimen Daily Repeat, gender Male, age 6-8 weeks
Details: in vivo, ip, route intraperitoneal, vehicle 100 % SALINE; for ABSOLUTE BASOPHIL / ABSOLUTE EOSINOPHIL / ABSOLUTE LYMPHOCYTE / ABSOLUTE MONOCYTE / ABSOLUTE SEGMENTED NEUTROPHIL / BASOPHIL / EOSINOPHIL / ERYTHROCYTE COUNT / HEMATOCRIT / HEMOGLOBIN / LEUKOCYTE COUNT / LYMPHOCYTE / MEAN CORPUSCULAR HEMOGLOBIN / MEAN CORPUSCULAR HEMOGLOBIN CONCENTRATION / MEAN CORPUSCULAR VOLUME / MONOCYTE / NEUTROPHIL / PLATELET COUNT: tissue Blood; for ALANINE AMINOTRANSFERASE / ALBUMIN / ALKALINE PHOSPHATASE / ASPARTATE AMINOTRANSFERASE / BLOOD UREA NITROGEN / CARBON DIOXIDE / CHOLESTEROL / CREATINE PHOSPHOKINASE / CREATININE / GLUCOSE / LACTATE DEHYDROGENASE / LIPASE / PHOSPHORUS / POTASSIUM / SODIUM / TOTAL BILIRUBIN / TOTAL PROTEIN / URIC ACID / CHLORIDE: tissue Plasma
[1] = 0 mg/kg, 120 h, dose level Control, time 5 day
[2] = 0 mg/kg, […], dose level Control, time 14 day
[3] = 0 mg/kg, […], dose level Control, time 28 day
[4] = 8 mg/kg, 120 h, dose level High, time 5 day
[5] = 8 mg/kg, […], dose level High, time 14 day
[6] = 8 mg/kg, […], dose level High, time 28 day

## GOLD SODIUM THIOMALATE
[1]
  ABSOLUTE BASOPHIL: 32 cells/µL
  ABSOLUTE EOSINOPHIL: 110 cells/µL
  ABSOLUTE LYMPHOCYTE: 6630 cells/µL
  ABSOLUTE MONOCYTE: 140 cells/µL
  ABSOLUTE SEGMENTED NEUTROPHIL: 1170 cells/µL
  BASOPHIL: 0.38% and 0.35%
  EOSINOPHIL: 1.28% and 0.62%
  ERYTHROCYTE COUNT: 7.45 x10E6/uL and 7.26 x10E6/uL
  HEMATOCRIT: 45.74% and 47.97%
  HEMOGLOBIN: 14.72 G/DL and 15.38 G/DL
  LEUKOCYTE COUNT: 8.11 x10E3/uL and 8.68 x10E3/uL
  LYMPHOCYTE: 81.3% and 86.77%
  MEAN CORPUSCULAR HEMOGLOBIN: 19.76 pg and 21.18 pg
  MEAN CORPUSCULAR HEMOGLOBIN CONCENTRATION: 32.16 G/DL and 32.05 G/DL
  MEAN CORPUSCULAR VOLUME: 61.38 fL and 66.15 fL
  MONOCYTE: 1.76% and 1.57%
  NEUTROPHIL: 14.9% and 9.53%
  PLATELET COUNT: 1322.4 x10E3/uL and 1786 x10E3/uL
  ALANINE AMINOTRANSFERASE: 25.8 u/L and 20.5 u/L
  ALBUMIN: 3.64 G/DL and 4.35 G/DL
  ALKALINE PHOSPHATASE: 300 u/L
  ASPARTATE AMINOTRANSFERASE: 81.4 u/L and 86.75 u/L
  BLOOD UREA NITROGEN: 14.4 mg/dL and 17 mg/dL
  CARBON DIOXIDE: 29 mmol/L
  CHOLESTEROL: 69.2 mg/dL and 51.25 mg/dL
  CREATINE PHOSPHOKINASE: 303.2 u/L and 384.75 u/L
  CREATININE: 0.56 mg/dL and 0.47 mg/dL
  GLUCOSE: 125.4 mg/dL and 128.75 mg/dL
  LACTATE DEHYDROGENASE: 105.4 u/L and 145 u/L
  LIPASE: 22.4 u/L and 13.25 u/L
  PHOSPHORUS: 11.8 mg/dL
  POTASSIUM: 5.52 MEQ/L and 6.58 MEQ/L
  SODIUM: 147 MEQ/L and 151 MEQ/L
  TOTAL BILIRUBIN: 0.2 mg/dL and 0.33 mg/dL
  TOTAL PROTEIN: 6.1 G/DL and 6.53 G/DL
  URIC ACID: 1.06 mg/dL and 1.95 mg/dL
[2]
  ABSOLUTE BASOPHIL: 130 cells/µL
  ABSOLUTE EOSINOPHIL: 140 cells/µL
  ABSOLUTE LYMPHOCYTE: 13500 cells/µL
  ABSOLUTE MONOCYTE: 400 cells/µL
  ABSOLUTE SEGMENTED NEUTROPHIL: 2330 cells/µL
  HEMATOCRIT: 45.98%
  HEMOGLOBIN: 15.17 G/DL
  MEAN CORPUSCULAR VOLUME: 59.4 fL
  NEUTROPHIL: 14.14%
  ALBUMIN: 3.66 G/DL
  CARBON DIOXIDE: 25 mmol/L
  CHLORIDE: 107 MEQ/L
  CREATINE PHOSPHOKINASE: 410.25 u/L
  SODIUM: 149.2 MEQ/L
  URIC ACID: 0.94 mg/dL
[3]
  ABSOLUTE BASOPHIL: 91 cells/µL
  ABSOLUTE EOSINOPHIL: 110 cells/µL
  ABSOLUTE LYMPHOCYTE: 9910 cells/µL
  ABSOLUTE MONOCYTE: 210 cells/µL
  ABSOLUTE SEGMENTED NEUTROPHIL: 1560 cells/µL
  BASOPHIL: 0.77%
  EOSINOPHIL: 0.92%
  ERYTHROCYTE COUNT: 8.21 x10E6/uL
  HEMATOCRIT: 47.53%
  HEMOGLOBIN: 15.65 G/DL
  LEUKOCYTE COUNT: 11.91 x10E3/uL
  LYMPHOCYTE: 83.34%
  MEAN CORPUSCULAR HEMOGLOBIN: 19.07 pg
  MEAN CORPUSCULAR HEMOGLOBIN CONCENTRATION: 32.93 G/DL
  MEAN CORPUSCULAR VOLUME: 57.9 fL
  MONOCYTE: 1.68%
  NEUTROPHIL: 12.97%
  PLATELET COUNT: 1323.8 x10E3/uL
  ALANINE AMINOTRANSFERASE: 30 u/L
  ALBUMIN: 3.71 G/DL
  ALKALINE PHOSPHATASE: 186.8 u/L
  ASPARTATE AMINOTRANSFERASE: 78.2 u/L
  BLOOD UREA NITROGEN: 14.2 mg/dL
  CHOLESTEROL: 44.9 mg/dL
  CREATINE PHOSPHOKINASE: 334.3 u/L
  CREATININE: 0.6 mg/dL
  GLUCOSE: 147.2 mg/dL
  LACTATE DEHYDROGENASE: 123.1 u/L
  LIPASE: 9.6 u/L
  PHOSPHORUS: 10.01 mg/dL
  POTASSIUM: 6.57 MEQ/L
  SODIUM: 149.5 MEQ/L
  TOTAL BILIRUBIN: 0.21 mg/dL
  TOTAL PROTEIN: 6.66 G/DL
  URIC ACID: 1.26 mg/dL
[4]
  ABSOLUTE BASOPHIL: 130 cells/µL
  ABSOLUTE EOSINOPHIL: 56 cells/µL
  ABSOLUTE LYMPHOCYTE: 9210 cells/µL
  ABSOLUTE MONOCYTE: 260 cells/µL
  ABSOLUTE SEGMENTED NEUTROPHIL: 1220 cells/µL
  BASOPHIL: 1.14% and 0.55%
  EOSINOPHIL: 0.52% and 0.85%
  ERYTHROCYTE COUNT: 7.23 x10E6/uL and 7.38 x10E6/uL
  HEMATOCRIT: 44.18% and 47.65%
  LEUKOCYTE COUNT: 10.96 x10E3/uL and 5.99 x10E3/uL
  LYMPHOCYTE: 83.86% and 79.83%
  MEAN CORPUSCULAR HEMOGLOBIN: 19.96 pg and 20.48 pg
  MEAN CORPUSCULAR HEMOGLOBIN CONCENTRATION: 32.6 G/DL and 31.73 G/DL
  MEAN CORPUSCULAR VOLUME: 64.58 fL
  MONOCYTE: 2.34% and 2.35%
  NEUTROPHIL: 11.32% and 14.95%
  PLATELET COUNT: 1423.2 x10E3/uL and 1443.75 x10E3/uL
  ALANINE AMINOTRANSFERASE: 32.8 u/L and 21 u/L
  ALBUMIN: 3.28 G/DL
  ALKALINE PHOSPHATASE: 176.2 u/L and 278.5 u/L
  ASPARTATE AMINOTRANSFERASE: 100.4 u/L and 71 u/L
  BLOOD UREA NITROGEN: 18.2 mg/dL and 15.25 mg/dL
  CARBON DIOXIDE: 27 mmol/L
  CHLORIDE: 106.6 MEQ/L and 106.75 MEQ/L
  CHOLESTEROL: 68.4 mg/dL and 52.25 mg/dL
  CREATINE PHOSPHOKINASE: 159.5 u/L and 253 u/L
  CREATININE: 0.52 mg/dL and 0.45 mg/dL
  GLUCOSE: 124.5 mg/dL
  LACTATE DEHYDROGENASE: 57.5 u/L and 107.5 u/L
  LIPASE: 28.8 u/L and 9.75 u/L
  PHOSPHORUS: 9.6 mg/dL and 11.85 mg/dL
  POTASSIUM: 5.78 MEQ/L and 5.65 MEQ/L
  SODIUM: 150.8 MEQ/L and 151.5 MEQ/L
  TOTAL BILIRUBIN: 0.18 mg/dL and 0.32 mg/dL
  TOTAL PROTEIN: 5.68 G/DL and 6.25 G/DL
  URIC ACID: 1.38 mg/dL and 2.12 mg/dL
[5]
  ABSOLUTE BASOPHIL: 34 cells/µL
  ABSOLUTE EOSINOPHIL: 82 cells/µL
  ABSOLUTE LYMPHOCYTE: 8830 cells/µL
  ABSOLUTE MONOCYTE: 250 cells/µL
  ABSOLUTE SEGMENTED NEUTROPHIL: 1460 cells/µL
  MEAN CORPUSCULAR HEMOGLOBIN: 20.12 pg
  CARBON DIOXIDE: 25 mmol/L
  CHLORIDE: 108.6 MEQ/L
[6]
  ABSOLUTE BASOPHIL: 110 cells/µL
  ABSOLUTE EOSINOPHIL: 71 cells/µL
  ABSOLUTE LYMPHOCYTE: 9610 cells/µL
  ABSOLUTE MONOCYTE: 180 cells/µL
  ABSOLUTE SEGMENTED NEUTROPHIL: 1180 cells/µL
  BASOPHIL: 0.95%
  EOSINOPHIL: 0.64%
  ERYTHROCYTE COUNT: 7.92 x10E6/uL
  HEMATOCRIT: 45.49%
  LEUKOCYTE COUNT: 11.2 x10E3/uL
  LYMPHOCYTE: 85.54%
  MEAN CORPUSCULAR HEMOGLOBIN: 18.71 pg
  MEAN CORPUSCULAR HEMOGLOBIN CONCENTRATION: 32.56 G/DL
  MEAN CORPUSCULAR VOLUME: 57.51 fL
  MONOCYTE: 1.65%
  NEUTROPHIL: 10.78%
  PLATELET COUNT: 1410.8 x10E3/uL
  ALANINE AMINOTRANSFERASE: 33.3 u/L
  ALBUMIN: 3.51 G/DL
  ALKALINE PHOSPHATASE: 144.9 u/L
  ASPARTATE AMINOTRANSFERASE: 73.8 u/L
  BLOOD UREA NITROGEN: 12.7 mg/dL
  CHLORIDE: 107.3 MEQ/L
  CHOLESTEROL: 48.9 mg/dL
  CREATINE PHOSPHOKINASE: 237.4 u/L
  CREATININE: 0.61 mg/dL
  GLUCOSE: 141.1 mg/dL
  LACTATE DEHYDROGENASE: 100.8 u/L
  LIPASE: 13.2 u/L
  PHOSPHORUS: 9.57 mg/dL
  POTASSIUM: 6.28 MEQ/L
  SODIUM: 150 MEQ/L
  TOTAL BILIRUBIN: 0.2 mg/dL
  TOTAL PROTEIN: 6.4 G/DL
  URIC ACID: 1.22 mg/dL

— ChEMBL document CHEMBL3885881, “DrugMatrix”
